According to US20230227435A1, “SMALL MOLECULE MODULATORS OF IL-17” (LEO PHARMA A/S, priority 2020, published 2023):

target: T1, human IL-17AA (Homo sapiens, UniProt Q16552); test: IL-8 release assay in human epithelial keratinocytes adult (HEKa); assay type: cell-based; details: HEKa cells; 3 ng/mL HEK-human IL-17AA + 10 ng/mL human TNFalpha; 68-72 hours; IL-8 by HTRF
T1 construct: host or cells: HEK (human embryonic kidney) cells
T1 sequence (Q16552 24-155) 1: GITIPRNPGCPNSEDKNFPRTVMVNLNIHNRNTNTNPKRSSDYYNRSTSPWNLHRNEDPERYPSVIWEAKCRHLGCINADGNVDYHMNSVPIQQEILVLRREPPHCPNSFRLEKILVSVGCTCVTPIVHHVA
T1 sequence (Q16552 24-155) 2: T1 sequence (Q16552 24-155) 1
Experimental: Example 8: IL-8 Release Assay in Human Epithelial Keratinocytes Adult (HEKa)
Keratinocytes were seeded at 3500 cells/well in 384-well ViewPlates (Perkin Elmer) in Epilife medium (Thermo Fisher) containing human keratinocyte growth supplement (HKGS) without hydrocortisone and incubated in a humid incubator at 37° C., 5% CO2, overnight. The following day growth medium was removed and 25 μl fresh Epilife medium was added. 75 nL test compound in100% DMSO was added into each well reserved for test compounds, by the use of acoustic pipetting. The remaining wells received an equal volume of DMSO only, as vehicle control, or terfenadine in DMSO, as a positive control for any cytotoxic compounds. Subsequently, another 25 μL Epilife medium was added to each well. Finally, wells containing test compounds and wells prepared to yield maximum stimulation received 25 μL of 9 ng/mL recombinant, human embryonic kidney cell (HEK)-derived human IL-17AA+30 ng/mL human TNF-alpha, in Epilife medium. Wells prepared to define 100% inhibition of IL-17 effects received 25 μL of 30 ng/mL human TNF-alpha alone, in Epilife medium. Final concentrations were 3 ng/mL HEK-human IL-17AA+10 ng/mL human TNFalpha (maximum stimulation) and 10 ng/mL human TNFalpha alone (100% inhibition, Emax), respectively. Cells were incubated for 68-72 hours in the incubator. IL-8 released from the cells was measured by the use of a commercial homogenous time-resolved fluorescence (HTRF) assay (CisBio). 2 μL cell culture supernatant was transferred to a 384-well Proxiplate. 5 μL HTRF reagent was added and the plates were incubated sealed in the dark for 3-22 hours at room temperature. Time-resolved fluorescence was read at 665 vs 620 nm, with excitation at 320 nm, and IL-8 levels were calculated as percent of controls. Reduction of the amount of secreted IL-8 indicates decreased IL-17 signaling. Concentration response curves were fitted by the use of a four-parameter logistic equation. Relative IC50 and Emax were reported from curves showing acceptable fit (r^2>0.9). Cytotoxicity was measured in the cell-containing Viewplates following addition of 7 μL PrestoBlue (Thermo Fisher) and incubation for 2.5-3 hours at room temperature, by measuring fluorescence at 615 nm (excitation at 535 nm). Fluorescence was directly proportional to the amount of metabolic activity. Reduction of fluorescence signal indicated cytotoxicity.
Compounds of the present invention were tested in the IL-8 release assay in human epithelial keratinocytes.

In the case of `Cc1cn(C)nc1-c1nnc(C(C(=O)Nc2ccc(-c3c(C)n[nH]c3C)cc2)C(C2CC2)C2CC2)[nH]1` (stereo not drawn) [Example 46, 3,3-dicyclopropyl-N-[4-(3,5-dimethyl-1H-pyrazol-4-yl)phenyl]-2-[5-(1,4-dimethylpyrazol-3-yl)-4H-1,2,4-triazol-3-yl]propanamide], the “Rel EC50 IL-8 release assay” value is reported as “no”.

same assay, conditions: HEKa cells; 3 ng/mL HEK-human IL-17AA + 10 ng/mL human TNFalpha; 68-72 hours; IL-8 by HTRF; read-out: Rel EC50 IL-8 release assay

`Cc1cc(-c2nnc(C(C(=O)Nc3ccc(-c4c(C)n[nH]c4C)cc3)C(C3CC3)C3CC3)[nH]2)n(C)n1` (stereo not drawn) [Example 47, 3,3-dicyclopropyl-N-[4-(3,5-dimethyl-1H-pyrazol-4-yl)phenyl]-2-[5-(2,5-dimethylpyrazol-3-yl)-4H-1,2,4-triazol-3-yl]propanamide] and `Cc1cncc(-c2nnc(C(C(=O)Nc3ccc(-c4c(C)n[nH]c4C)cc3)C(C3CC3)C3CC3)[nH]2)c1` (stereo not drawn) [Example 50, 3,3-dicyclopropyl-N-[4-(3,5-dimethyl-1H-pyrazol-4-yl)phenyl]-2-[5-(5-methyl-3-pyridyl)-4H-1,2,4-triazol-3-yl]propanamide] are within 1.5-fold of each other in EC50: 83 nM for the first, 110 nM for the second.

Going from `COc1cncc(-c2nnc(C(C(=O)Nc3ccc(-c4c(C)n[nH]c4C)cc3)C(C3CC3)C3CC3)[nH]2)c1` (stereo not drawn) [Example 48, 3,3-dicyclopropyl-N-[4-(3,5-dimethyl-1H-pyrazol-4-yl)phenyl]-2-[5-(5-methoxy-3-pyridyl)-4H-1,2,4-triazol-3-yl]propanamide] to `COc1ccncc1-c1nnc(C(C(=O)Nc2ccc(-c3c(C)n[nH]c3C)cc2)C(C2CC2)C2CC2)[nH]1` (stereo not drawn) [Example 56, 3,3-dicyclopropyl-N-[4-(3,5-dimethyl-1H-pyrazol-4-yl)phenyl]-2-[5-(4-methoxy-3-pyridyl)-4H-1,2,4-triazol-3-yl]propanamide], the EC50 rises from 130 nM to 320 nM (2.5-fold).

First: COc1ncccc1-c1nnc(C(C(=O)Nc2ccc(-c3c(C)n[nH]c3C)cc2)C(C2CC2)C2CC2)[nH]1 (stereo not drawn) [Example 49, 3,3-dicyclopropyl-N-[4-(3,5-dimethyl-1H-pyrazol-4-yl)phenyl]-2-[5-(2-methoxy-3-pyridyl)-4H-1,2,4-triazol-3-yl]propanamide]
Second: Cc1ncccc1-c1nnc(C(C(=O)Nc2ccc(-c3c(C)n[nH]c3C)cc2)C(C2CC2)C2CC2)[nH]1 (stereo not drawn) [Example 52, 3,3-dicyclopropyl-N-[4-(3,5-dimethyl-1H-pyrazol-4-yl)phenyl]-2-[5-(2-methyl-3-pyridyl)-4H-1,2,4-triazol-3-yl]propanamide]
The EC50 of the first is 2.6-fold higher: 460 nM for the first, 180 nM for the second.

Going from `CCOc1cc(-c2nnc(C(C(=O)Nc3ccc(-c4c(C)n[nH]c4C)cc3)C(C3CC3)C3CC3)[nH]2)ccn1` (stereo not drawn) [Example 51, 3,3-dicyclopropyl-N-[4-(3,5-dimethyl-1H-pyrazol-4-yl)phenyl]-2-[5-(2-ethoxy-4-pyridyl)-4H-1,2,4-triazol-3-yl]propanamide] to `Cc1n[nH]c(C)c1-c1ccc(NC(=O)C(c2nnc(-c3ccnc(C(F)F)c3)[nH]2)C(C2CC2)C2CC2)cc1` (stereo not drawn) [Example 55, 3,3-dicyclopropyl-2-[5-[2-(difluoromethyl)-4-pyridyl]-4H-1,2,4-triazol-3-yl]-N-[4-(3,5-dimethyl-1H-pyrazol-4-yl)phenyl]propanamide], the EC50 falls from 100 nM to 27 nM (3.7-fold).

Compared with `Cc1ccncc1-c1nnc(C(C(=O)Nc2ccc(-c3c(C)n[nH]c3C)cc2)C(C2CC2)C2CC2)[nH]1` (stereo not drawn) [Example 53, 3,3-dicyclopropyl-N-[4-(3,5-dimethyl-1H-pyrazol-4-yl)phenyl]-2-[5-(4-methyl-3-pyridyl)-4H-1,2,4-triazol-3-yl]propanamide], `Cc1cccnc1-c1nnc(C(C(=O)Nc2ccc(-c3c(C)n[nH]c3C)cc2)C(C2CC2)C2CC2)[nH]1` (stereo not drawn) [Example 60, 3,3-dicyclopropyl-N-[4-(3,5-dimethyl-1H-pyrazol-4-yl)phenyl]-2-[5-(3-methyl-2-pyridyl)-4H-1,2,4-triazol-3-yl]propanamide] is 3.4-fold higher in EC50: 73 nM for the first, 250 nM for the second.

Compared with `Cc1n[nH]c(C)c1-c1ccc(NC(=O)C(c2nnc(-c3ccnc(C(F)(F)F)c3)[nH]2)C(C2CC2)C2CC2)cc1` (stereo not drawn) [Example 54, 3,3-dicyclopropyl-N-[4-(3,5-dimethyl-1H-pyrazol-4-yl)phenyl]-2-[5-[2-(trifluoromethyl)-4-pyridyl]-4H-1,2,4-triazol-3-yl]propanamide], `Cc1n[nH]c(C)c1-c1ccc(NC(=O)C(c2nnc(-c3ccccn3)[nH]2)C(C2CC2)C2CC2)cc1` (stereo not drawn) [Example 58, 3,3-dicyclopropyl-N-[4-(3,5-dimethyl-1H-pyrazol-4-yl)phenyl]-2-[5-(2-pyridyl)-4H-1,2,4-triazol-3-yl]propanamide] is 4.1-fold higher in EC50: 76 nM for the first, 310 nM for the second.

Going from `Cc1n[nH]c(C)c1-c1ccc(NC(=O)C(c2nnc(-c3ccnn3CCCO)[nH]2)C(C2CC2)C2CC2)cc1` (stereo not drawn) [Example 57, 3,3-dicyclopropyl-N-[4-(3,5-dimethyl-1H-pyrazol-4-yl)phenyl]-2-[5-[2-(3-hydroxypropyl)pyrazol-3-yl]-4H-1,2,4-triazol-3-yl]propanamide] to `CCn1nccc1-c1cnc(C(C(=O)Nc2ccc(-c3c(C)n[nH]c3C)cc2)C(C2CC2)C2CC2)[nH]1` (stereo not drawn) [Example 67, 3,3-dicyclopropyl-N-[4-(3,5-dimethyl-1H-pyrazol-4-yl)phenyl]-2-[5-(2-ethylpyrazol-3-yl)-1H-imidazol-2-yl]propanamide], the EC50 rises from 59 nM to 210 nM (3.6-fold). The first is the more potent here.

First: Cc1cccc(-c2nnc(C(C(=O)Nc3ccc(-c4c(C)n[nH]c4C)cc3)C(C3CC3)C3CC3)[nH]2)n1 (stereo not drawn) [Example 59, 3,3-dicyclopropyl-N-[4-(3,5-dimethyl-1H-pyrazol-4-yl)phenyl]-2-[5-(6-methyl-2-pyridyl)-4H-1,2,4-triazol-3-yl]propanamide]
Second: Cc1n[nH]c(C)c1-c1ccc(NC(=O)C(c2nnc(C3CCOC3)[nH]2)C(C2CC2)C2CC2)cc1 (stereo not drawn) [Example 62, 3,3-dicyclopropyl-N-[4-(3,5-dimethyl-1H-pyrazol-4-yl)phenyl]-2-(5-tetrahydrofuran-3-yl-4H-1,2,4-triazol-3-yl)propanamide]
The EC50 of the first is 36-fold lower: 45 nM for the first, 1600 nM for the second.

Going from `Cc1n[nH]c(C)c1-c1ccc(NC(=O)C(c2nnc(C3CCOCC3)[nH]2)C(C2CC2)C2CC2)cc1` (stereo not drawn) [Example 61, 3,3-dicyclopropyl-N-[4-(3,5-dimethyl-1H-pyrazol-4-yl)phenyl]-2-(5-tetrahydropyran-4-yl-4H-1,2,4-triazol-3-yl)propanamide] to `Cc1n[nH]c(C)c1-c1ccc(NC(=O)C(c2nnc(-c3ccnc(C(F)F)c3)[nH]2)C2CCC(F)(F)CC2)cc1` (stereo not drawn) [Example 63, 2-(4,4-difluorocyclohexyl)-2-[5-[2-(difluoromethyl)-4-pyridyl]-4H-1,2,4-triazol-3-yl]-N-[4-(3,5-dimethyl-1H-pyrazol-4-yl)phenyl]acetamide], the EC50 falls from 2700 nM to 200 nM (14-fold). The second is the more potent here.

`Cc1cc(-c2nnc(C(C(=O)Nc3ccc(-c4c(C)n[nH]c4C)cc3)C3CCC(F)(F)CC3)[nH]2)ccn1` (stereo not drawn) [Example 65, 2-(4,4-difluorocyclohexyl)-N-[4-(3,5-dimethyl-1H-pyrazol-4-yl)phenyl]-2-[5-(2-methyl-4-pyridyl)-4H-1,2,4-triazol-3-yl]acetamide] and `COc1cc(-c2nnc(C(C(=O)Nc3ccc(-c4c(C)n[nH]c4C)cc3)C3CCC(F)(F)CC3)[nH]2)ccn1` (stereo not drawn) [Example 66, 2-(4,4-difluorocyclohexyl)-N-[4-(3,5-dimethyl-1H-pyrazol-4-yl)phenyl]-2-[5-(2-methoxy-4-pyridyl)-4H-1,2,4-triazol-3-yl]acetamide] are within 1.5-fold of each other in EC50: 520 nM for the first, 640 nM for the second.
